Test results as given in patent publication US10167262B2, “Herbicidal substituted 3-arylpyrazoles” (FMC CORPORATION, priority 2014, dated 2019).

Assays:
Format in all cases: in vivo
rice (Oryza sativa) = experiment: Test B flooded paddy test, plant response rating 0-100; conditions: Flood, 250 g ai/ha; scale 0 to 100 (0 no effect, 100 complete control); 13 to 15 days
Procedure, shortened: (§1)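 Visual injury ratings against untreated controls, taken 13 to 15 days after compound was added to paddy water standing 3 cm above the soil.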

[1] = tested on: ducksalad (Heteranthera limosa); experiment: as above; conditions: Flood, 250 g ai/ha; scale 0 to 100 (0 no effect, 100 complete control); 13 to 15 days
Procedure, shortened: as §1

[2] = tested on: sedge, umbrella (small-flower umbrella sedge, Cyperus difformis); experiment: as above; conditions: Flood, 250 g ai/ha; scale 0 to 100 (0 no effect, 100 complete control); 13 to 15 days
Procedure, shortened: as §1

[3] = tested on: barnyardgrass (Echinochloa crus-galli); experiment: as above; conditions: Flood, 250 g ai/ha; scale 0 to 100 (0 no effect, 100 complete control); 13 to 15 days
Procedure, shortened: as §1

[4] = tested on: wild poinsettia (Euphorbia heterophylla); experiment: Test E pre-/postemergence greenhouse test, plant response rating 0-100; conditions: scale 0 to 100; for Plant response rating, Poinsettia, Wild: Postemergence; for Poinsettia, Wild plant response rating: Preemergence
Procedure, shortened: (§2)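 Visual control score, 0–100 relative to untreated plants, recorded 14–21 days after spraying. Treatments: preemergence on silt loam seedbeds and postemergence at the 1- to 4-leaf stage, with compound in surfactant-containing solvent.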

[5] = tested on: dayflower (Virginia (VA) dayflower, Commelina virginica); experiment: as above; conditions: scale 0 to 100; for Plant response rating, Dayflower, VA: Postemergence; for Dayflower, VA plant response rating: Preemergence
Procedure, shortened: as §2

[6] = tested on: hairy beggarticks (Bidens pilosa); experiment: as above; conditions: scale 0 to 100; for Plant response rating, Beggarticks: Postemergence; for Beggarticks plant response rating: Preemergence
Procedure, shortened: as §2

[7] = tested on: palmer pigweed (Amaranthus palmeri); experiment: as above; conditions: scale 0 to 100; for Plant response rating, Pigweed, Palmer: Postemergence; for Pigweed, Palmer plant response rating: Preemergence
Procedure, shortened: as §2

[8] = tested on: waterhemp (common waterhemp, Amaranthus rudis); experiment: as above; conditions: scale 0 to 100; for Plant response rating, Waterhemp: Postemergence; for Waterhemp plant response rating: Preemergence
Procedure, shortened: as §2

[9] = tested on: sandbur (southern sandbur, Cenchrus echinatus); experiment: as above; conditions: scale 0 to 100; for Plant response rating, Sandbur: Postemergence; for Sandbur plant response rating: Preemergence
Procedure, shortened: as §2

[10] = tested on: fall panicum (Panicum dichotomiflorum); experiment: as above; conditions: scale 0 to 100; for Plant response rating, Panicum, Fall: Postemergence; for Panicum, Fall plant response rating: Preemergence
Procedure, shortened: as §2

[11] = tested on: Brazilian crabgrass (Digitaria horizontalis); experiment: as above; conditions: scale 0 to 100; for Plant response rating, Crabgrass, Brazil: Postemergence; for Crabgrass, Brazil plant response rating: Preemergence
Procedure, shortened: as §2

[12] = tested on: arrowleaf sida (Sida rhombifolia); experiment: as above; conditions: for Plant response rating, Arrowleaf Sida: Postemergence; for Arrowleaf Sida plant response rating: Preemergence
Procedure, shortened: as §2

[13] = tested on: barnyardgrass (Echinochloa crus-galli); experiment: as above; conditions: scale 0 to 100; for Plant response rating, Barnyardgrass: Postemergence; for Barnyardgrass plant response rating: Preemergence
Procedure, shortened: as §2

O=Cn1cc(C(=O)c2ccccc2)c(-c2cc(Cl)cc(Cl)c2)n1 [Compound 28]
Plant response rating, Rice (rice (Oryza sativa)): 0 | Plant response rating, Ducksalad [1]: 0 | Plant response rating, Sedge, Umbrella [2]: 0 | Plant response rating, Barnyardgrass [3]: 0 | Plant response rating, Poinsettia, Wild ([4]; 31 g ai/ha): 0 | Plant response rating, Poinsettia, Wild ([4]; 62 g ai/ha): 0 | Plant response rating, Poinsettia, Wild ([4]; 125 g ai/ha): 0 | Plant response rating, Poinsettia, Wild ([4]; 250 g ai/ha): 10 | Plant response rating, Poinsettia, Wild ([4]; 500 g ai/ha): 15 | Poinsettia, Wild plant response rating ([4]; 31 g ai/ha): 0 | Poinsettia, Wild plant response rating ([4]; 62 g ai/ha): 0 | Poinsettia, Wild plant response rating ([4]; 125 g ai/ha): 0 | Poinsettia, Wild plant response rating ([4]; 250 g ai/ha): 0 | Poinsettia, Wild plant response rating ([4]; 500 g ai/ha): 0 | Plant response rating, Dayflower, VA ([5]; 31 g ai/ha): 0 | Plant response rating, Dayflower, VA ([5]; 62 g ai/ha): 0 | Plant response rating, Dayflower, VA ([5]; 125 g ai/ha): 0 | Plant response rating, Dayflower, VA ([5]; 250 g ai/ha): 0 | Plant response rating, Dayflower, VA ([5]; 500 g ai/ha): 0 | Dayflower, VA plant response rating ([5]; 31 g ai/ha): 0 | Dayflower, VA plant response rating ([5]; 62 g ai/ha): 0 | Dayflower, VA plant response rating ([5]; 125 g ai/ha): 0 | Dayflower, VA plant response rating ([5]; 250 g ai/ha): 0 | Dayflower, VA plant response rating ([5]; 500 g ai/ha): 0 | Plant response rating, Beggarticks ([6]; 31 g ai/ha): 80 | Plant response rating, Beggarticks ([6]; 62 g ai/ha): 90 | Plant response rating, Beggarticks ([6]; 125 g ai/ha): 95 | Plant response rating, Beggarticks ([6]; 250 g ai/ha): 98 | Plant response rating, Beggarticks ([6]; 500 g ai/ha): 98 | Beggarticks plant response rating ([6]; 31 g ai/ha): 0 | Beggarticks plant response rating ([6]; 62 g ai/ha): 0 | Beggarticks plant response rating ([6]; 125 g ai/ha): 40 | Beggarticks plant response rating ([6]; 250 g ai/ha): 70 | Beggarticks plant response rating ([6]; 500 g ai/ha): 70 | Plant response rating, Pigweed, Palmer ([7]; 31 g ai/ha): 50 | Plant response rating, Pigweed, Palmer ([7]; 62 g ai/ha): 70 | Plant response rating, Pigweed, Palmer ([7]; 125 g ai/ha): 70 | Plant response rating, Pigweed, Palmer ([7]; 250 g ai/ha): 80 | Plant response rating, Pigweed, Palmer ([7]; 500 g ai/ha): 90 | Pigweed, Palmer plant response rating ([7]; 31 g ai/ha): 0 | Pigweed, Palmer plant response rating ([7]; 62 g ai/ha): 0 | Pigweed, Palmer plant response rating ([7]; 125 g ai/ha): 0 | Pigweed, Palmer plant response rating ([7]; 250 g ai/ha): 25 | Pigweed, Palmer plant response rating ([7]; 500 g ai/ha): 100 | Plant response rating, Waterhemp ([8]; 31 g ai/ha): 80 | Plant response rating, Waterhemp ([8]; 62 g ai/ha): 85 | Plant response rating, Waterhemp ([8]; 125 g ai/ha): 85 | Plant response rating, Waterhemp ([8]; 250 g ai/ha): 90 | Plant response rating, Waterhemp ([8]; 500 g ai/ha): 90 | Waterhemp plant response rating ([8]; 31 g ai/ha): 0 | Waterhemp plant response rating ([8]; 62 g ai/ha): 0 | Waterhemp plant response rating ([8]; 125 g ai/ha): 65 | Waterhemp plant response rating ([8]; 250 g ai/ha): 95 | Waterhemp plant response rating ([8]; 500 g ai/ha): 95 | Plant response rating, Sandbur ([9]; 31 g ai/ha): 0 | Plant response rating, Sandbur ([9]; 62 g ai/ha): 0 | Plant response rating, Sandbur ([9]; 125 g ai/ha): 0 | Plant response rating, Sandbur ([9]; 250 g ai/ha): 0 | Plant response rating, Sandbur ([9]; 500 g ai/ha): 0 | Sandbur plant response rating ([9]; 31 g ai/ha): 0 | Sandbur plant response rating ([9]; 62 g ai/ha): 0 | Sandbur plant response rating ([9]; 125 g ai/ha): 0 | Sandbur plant response rating ([9]; 250 g ai/ha): 0 | Sandbur plant response rating ([9]; 500 g ai/ha): 0 | Plant response rating, Panicum, Fall ([10]; 31 g ai/ha): 0 | Plant response rating, Panicum, Fall ([10]; 62 g ai/ha): 0 | Plant response rating, Panicum, Fall ([10]; 125 g ai/ha): 0 | Plant response rating, Panicum, Fall ([10]; 250 g ai/ha): 0 | Plant response rating, Panicum, Fall ([10]; 500 g ai/ha): 0 | Panicum, Fall plant response rating ([10]; 31 g ai/ha): 0 | Panicum, Fall plant response rating ([10]; 62 g ai/ha): 0 | Panicum, Fall plant response rating ([10]; 125 g ai/ha): 0 | Panicum, Fall plant response rating ([10]; 250 g ai/ha): 0 | Panicum, Fall plant response rating ([10]; 500 g ai/ha): 0 | Plant response rating, Crabgrass, Brazil ([11]; 31 g ai/ha): 0 | Plant response rating, Crabgrass, Brazil ([11]; 62 g ai/ha): 0 | Plant response rating, Crabgrass, Brazil ([11]; 125 g ai/ha): 0 | Plant response rating, Crabgrass, Brazil ([11]; 250 g ai/ha): 0 | Plant response rating, Crabgrass, Brazil ([11]; 500 g ai/ha): 0 | Crabgrass, Brazil plant response rating ([11]; 31 g ai/ha): 0 | Crabgrass, Brazil plant response rating ([11]; 62 g ai/ha): 0 | Crabgrass, Brazil plant response rating ([11]; 125 g ai/ha): 0 | Crabgrass, Brazil plant response rating ([11]; 250 g ai/ha): 35 | Crabgrass, Brazil plant response rating ([11]; 500 g ai/ha): 65 | Plant response rating, Arrowleaf Sida ([12]; 31 g ai/ha, scale 0 to 100): 65 | Plant response rating, Arrowleaf Sida ([12]; 62 g ai/ha, scale 0 to 100): 60 | Plant response rating, Arrowleaf Sida ([12]; 125 g ai/ha, scale 0 to 100): 75 | Plant response rating, Arrowleaf Sida ([12]; 250 g ai/ha, scale 0 to 100): 85 | Plant response rating, Arrowleaf Sida ([12]; 500 g ai/ha, scale 0 to 100 (0 no effect, 100 complete control)): 90 | Arrowleaf Sida plant response rating ([12]; 31 g ai/ha, scale 0 to 100): 0 | Arrowleaf Sida plant response rating ([12]; 62 g ai/ha, scale 0 to 100): 20 | Arrowleaf Sida plant response rating ([12]; 125 g ai/ha, scale 0 to 100): 75 | Arrowleaf Sida plant response rating ([12]; 250 g ai/ha, scale 0 to 100): 90 | Arrowleaf Sida plant response rating ([12]; 500 g ai/ha, scale 0 to 100): 100 | Plant response rating, Barnyardgrass ([13]; 31 g ai/ha): 0 | Plant response rating, Barnyardgrass ([13]; 62 g ai/ha): 0 | Plant response rating, Barnyardgrass ([13]; 125 g ai/ha): 0 | Plant response rating, Barnyardgrass ([13]; 250 g ai/ha): 0 | Plant response rating, Barnyardgrass ([13]; 500 g ai/ha): 0 | Barnyardgrass plant response rating ([13]; 31 g ai/ha): 0 | Barnyardgrass plant response rating ([13]; 62 g ai/ha): 0 | Barnyardgrass plant response rating ([13]; 125 g ai/ha): 0 | Barnyardgrass plant response rating ([13]; 250 g ai/ha): 0 | Barnyardgrass plant response rating ([13]; 500 g ai/ha): 0
